Data published in ChEMBL document CHEMBL1126448, “Synthesis and biological activity of putative mono-hydroxylated metabolites of velnacrine” (Bioorg Med Chem Lett, 1992).
Active and inactive are the calls of the source. No cut-off for these calls is given here.

Tests used:
[1] = tested on: Mus musculus; test: Compound was evaluated for reversal of scopolamine-induced memory impairment in mice when administered subcutaneously (0.31 - 5 mg/kg); format: functional; settings: route subcutaneous
[2] = Acute toxicity in mice when administered subcutaneously; settings: mouse, in vivo, sc
[3] = target: T1, Acetylcholinesterase (Rattus norvegicus, UniProt P37136)
T1 sequence (P37136 whole entry): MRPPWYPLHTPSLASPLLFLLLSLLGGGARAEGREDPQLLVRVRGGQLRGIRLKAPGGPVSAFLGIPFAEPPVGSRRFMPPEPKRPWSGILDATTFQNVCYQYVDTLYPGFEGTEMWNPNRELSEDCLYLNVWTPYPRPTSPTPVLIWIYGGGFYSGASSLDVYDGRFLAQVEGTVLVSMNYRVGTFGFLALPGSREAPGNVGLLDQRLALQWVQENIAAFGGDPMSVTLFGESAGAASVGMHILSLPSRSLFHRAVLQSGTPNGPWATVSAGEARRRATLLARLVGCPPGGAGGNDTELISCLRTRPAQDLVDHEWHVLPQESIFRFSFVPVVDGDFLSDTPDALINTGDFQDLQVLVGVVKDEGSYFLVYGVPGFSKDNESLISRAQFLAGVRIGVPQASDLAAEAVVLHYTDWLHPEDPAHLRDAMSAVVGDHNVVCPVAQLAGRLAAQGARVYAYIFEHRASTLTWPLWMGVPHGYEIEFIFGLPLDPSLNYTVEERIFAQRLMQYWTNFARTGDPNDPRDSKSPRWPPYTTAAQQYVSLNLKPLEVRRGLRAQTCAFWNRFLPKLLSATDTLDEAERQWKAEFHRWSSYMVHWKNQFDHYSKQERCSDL
Description: Inhibition of acetylcholinesterase

[4] = tested on: Mus musculus; test: Compound was evaluated for reversal of scopolamine-induced memory impairment in mice when administered subcutaneously (1-10 mg/kg); format: functional
[5] = tested on: Mus musculus; test: Compound was evaluated for reversal of scopolamine-induced memory impairment in mice when administered subcutaneously; Not active (1-10 mg/kg); format: functional
[6] = tested on: Mus musculus; test: Compound was evaluated for reversal of scopolamine-induced memory impairment in mice when administered subcutaneously; Not active (0.16-5 mg/kg); format: functional
[7] = tested on: Mus musculus; test: Compound was evaluated for reversal of scopolamine-induced memory impairment in mice when administered subcutaneously; format: functional

SMILES | LD50 [2] [mg/kg] | IC50 [3] [µM] | other results
Nc1c2c(nc3ccccc13)CCCC2O (centres undefined) [VELNACRINE] | > 80 | 1.3 | Dose [1]: 0.31 mg/kg
Nc1c2c(nc3ccccc13)C[C@H](O)C[C@@H]2O | > 80 | 5.4 | Dose [4]: 1 mg/kg
Nc1c2c(nc3ccccc13)[C@H](O)CC[C@H]2O | > 80 | 62.1 | DOSE [5]: inactive
Nc1c2c(nc3ccc(O)cc13)CCCC2O (centres undefined) | > 80 | 10.6 | Dose [6]: 0.16 mg/kg
Nc1c2c(nc3ccccc13)CC[C@H](O)[C@@H]2O | – | > 100 | –
Nc1c2c(nc3ccccc13)C[C@H](O)C[C@H]2O | > 80 | 14.7 | Dose [4]: 1 mg/kg
Nc1c2c(nc3ccccc13)CC[C@H](O)[C@H]2O | – | > 100 | –
Nc1c2c(nc3cc(O)ccc13)CCCC2O (centres undefined) | > 80 | 64.4 | Dose [6]: 0.16 mg/kg
Nc1c2c(nc3cccc(O)c13)CCCC2O (centres undefined) | > 80 | 27.4 | Dose [5]: 1 mg/kg
Nc1c2c(nc3c(O)cccc13)CCCC2O (centres undefined) | > 80 | 25.1 | Dose [5]: 1 mg/kg
Nc1c2c(nc3ccccc13)[C@H](O)CC[C@@H]2O | > 80 | 4.6 | Dose [7]: 3 mg/kg
